Results as given in patent publication EP0520336A2, “Aldehyde derivatives and their use as calpain inhibitors” (FUJIREBIO Inc., priority 1991, dated 1992).
Where a SMILES comes first, the peptide text is derived from it. [ ]: non-standard residue; d: D form. The star is where a group is joined. ξ: configuration not given here. Cbz = O=C(OCc1ccccc1)*; ξAze = O=C(O)C1CCN1

What was measured:
Calpain = test: Measurement of calpain inhibiting effect (casein hydrolysis, IC50 by Probit); assay type: biochemical, Japanese white rabbit; settings: 30 °C for 30 minutes, pH = 7.5, IC50 by method of Probit
Experimental: Test Example 1 Measurement of Calpain Inhibiting Effect
Calpain was separated from a skeletal muscle of a Japanese white rabbit and partially purified according to the method of Tsuji and Imahori as described in J.Biochem. 90, 233-240 (1981), whereby the calpain for use in a test for investigating the calpain inhibiting effect (i.e., the inhibitory effect on calpain activity) of the aldehyde compounds according to the present invention was prepared.
The calpain inhibiting effect was measured in accordance with the method of Yoshimura et al. as described in J. Biol. Chem. 258, 8883-8889 (1983).
Each assay mixture was prepared by mixing 0.05 ml of a 4% casein solution, 0.05 ml of a 50 mM cysteine solution, 0.05 ml of a calpain solution, 0.025 ml of purified water, 0.025 ml of a 10% dimethyl sulfoxide solution containing each compound shown in Table 15 and 0.25 ml of a 200 mM imidazole hydrochloric acid buffer solution (pH = 7.5).
The thus prepared assay mixture was preincubated at 30 ° C for 3 minutes. The reaction was started by the addition of 0.05 ml of a 50 mM calcium chloride solution to the above mixture. After the incubation at 30 °C for 30 minutes, the reaction was terminated by the addition of 0.5 ml of 5% trichloroacetic acid.
The amount of a trichloroacetic-acid-soluble protein produced by hydrolysis of casein by calpain was measured by the spectrophotometric analysis in accordance with the method of Ross and Schatz as described in Anal. Biochem. 54, 304-306 (1973), and the absorbance (a) of each sample was measured.
The absorbance (b) of a blank sample which was treated similarly without any of the aldehyde compounds of the present invention, dissolved in a 10% dimethyl sulfoxide solution, was measured.
The inhibition of calpain activity was calculated in accordance with the formula [(b-a)/b] X 100, and the amount of each aldehyde compound necessary to inhibit calpain activity by 50% [IC50] was calculated according to the method of Probit.

[1] = test system: Platelet rich plasma (PRP); test: Measurement of platelet-aggregation inhibiting effect (collagen-induced aggregation in platelet rich plasma); assay type: cell-based, Japanese white rabbit; settings: collagen-induced aggregation in rabbit PRP, preincubated at 37°C for 5 minutes, IC50 by method of Probit
Experimental: Test Example 2 Measurement of Platelet-aggregation Inhibiting Effect
Platelet rich plasma (PRP) was prepared and the platelet aggregation was measured in accordance with the method of Born and Cross as described in J. Phystol. 168, 178-195 (1963).
Blood of a Japanese white rabbit was drawn from a carotid artery of the rabbit. 9 parts by volume of the blood were mixed with 1 part by volume of a 3.8% aqueous solution of sodium citrate. The mixture was immediately centrifuged at 200 x g at 20 °C for 15 minutes, and PRP was obtained in the supernate. The number of platelets was calculated by use of an electronic cell counter (MEK-4150 manufactured by Nihon Kohden Kabushiki Kaisha). PRP with 55 X 10^4 or more platelets per 1 µl was employed in the tests.
10 µl of a test solution containing any of the aldehyde compounds of the present invention was added to 200 µl of PRP. The mixture was preincubated at 37°C for 5 minutes. To this mixture, 10 µl of collagen (22 µg/ml) was added to cause the aggregation. The aggregation was measured by Agricometer (NKK, PAT-4A).
In preparing the above test solution, each compound synthesized in the previously mentioned Examples as shown in Table 16 was dissolved in combined dimethyl sulfoxide and polyoxyethylene 60 hardened castor oil in ethanol. The mixture was diluted with an isotonic saline and the final concentration of the dimethyl sulfoxide and polyoxyethylene 60 hardened castor oil contained in the above mixture was adjusted to less than 1 %.
The inhibitory activity of each aldehyde compound on platelet aggregation was expressed by percentages compared with a blank test defined as 100% which was performed without any of the aldehyde compounds.
The amount of each aldehyde compound necessary to inhibit the platelet aggregation by 50% [IC50] was calculated according to the method of Probit.

[2] = Oryctolagus cuniculus, Platelet

O=C[C@H](Cc1ccccc1)NC(=O)C1CCN(C(=O)OCc2ccccc2)CC1 [1-7, 1-benzyloxycarbonylpiperidine-4-carboxylic acid-(1S)-(1-formyl-2-phenyl)ethylamide]
IC50 (Calpain): 3000 nM

O=C[C@H](Cc1ccccc1)NC(=O)C1CCN(C(=O)CCCc2ccccc2)CC1 [1-26, 1-(4-phenylbutyryl)piperidine-4-carboxylic acid-(1S)-(1-formyl-2-phenyl)ethylamide]
IC50 (Calpain): 890 nM

O=C[C@H](Cc1ccccc1)NC(=O)C1CCN(C(=O)c2ccc3ccccc3c2)CC1 [1-28, 1-(2-naphthoyl)piperidine-4-carboxylic acid-(1S)-(1-formyl-2-phenyl)ethylamide]
IC50 (Calpain): 220 nM

Cc1ccc(S(=O)(=O)N2CCC(C(=O)N[C@H](C=O)Cc3ccccc3)CC2)cc1 [1-30, 1-(4-methylphenylsulfonyl)piperidine-4-carboxylic acid-(1S)-(1-formyl-2-phenyl)ethylamide]
IC50 (Calpain): 1100 nM

O=C[C@H](Cc1ccccc1)NC(=O)C1CCN(C(=O)c2cccs2)CC1 [1-32, 1-(2-thienylcarbonyl)piperidine-4-carboxylic acid-(1S)-(1-formyl-2-phenyl)ethylamide]
IC50 (Calpain): 2000 nM

O=C[C@H](Cc1ccccc1)NC(=O)C1CCN(S(=O)(=O)c2ccc3ccccc3c2)CC1 [1-34, 1-(2-naphthylsulfonyl)piperidine-4-carboxylic acid-(1S)-(1-formyl-2-phenyl)ethylamide]
IC50 (Calpain): 170 nM

O=C[C@H](Cc1ccccc1)NC(=O)C1CCN(C(=O)c2ccc(Cl)c(Cl)c2)CC1 [1-36, 1-(3,4-dichlorobenzoyl)piperidine-4-carboxylic acid-(1S)-(1-formyl-2-phenyl)ethylamide]
IC50 (Calpain): 780 nM

O=C[C@H](Cc1ccccc1)NC(=O)C1CCN(C(=O)C(c2ccccc2)c2ccccc2)CC1 [1-38, 1-(diphenylacetyl)piperidine-4-carboxylic acid-(1S)-(1-formyl-2-phenyl)ethylamide]
IC50 (Calpain): 1900 nM

O=C[C@H](Cc1ccccc1)NC(=O)C1CCN(C(=O)C2c3ccccc3-c3ccccc32)CC1 [1-39, 1-(9-fluorenylcarbonyl)piperidine-4-carboxylic acid-(1S)-(1-formyl-2-phenyl)ethylamide]
IC50 (Calpain): 2300 nM

O=C[C@H](Cc1ccccc1)NC(=O)C1CCN(C(=O)Nc2ccccc2)CC1 [1-41, 1-(N-phenylcarbamoyl)piperidine-4-carboxylic acid-(1S)-(1-formyl-2-phenyl)ethylamide]
IC50 (Calpain): 940 nM

O=C[C@H](CCSCc1ccccc1Cl)NC(=O)C1CCN(C(=O)c2ccc3ccccc3c2)CC1 [1-51, 1-(2-naphthoyl)piperidine-4-carboxylic acid-(1S)-[1-formyl-3-(2-chlorobenzylthio)]propylamide]
IC50 (Calpain): 1400 nM
IC50 [1, 2]: 10000 nM

O=C[C@H](CCSCc1ccc(Cl)cc1)NC(=O)C1CCN(C(=O)/C=C/c2ccccc2Cl)CC1 [1-62, 1-(2-chlorocinnamoyl)piperidine-4-carboxylic acid-(1S)-[1-formyl-3-(4-chlorobenzylthio)]-propylamide]
IC50 (Calpain): 1600 nM
IC50 [1, 2]: 17000 nM

CC(C)C[C@H](OC(=O)Nc1cccc2ccccc12)C(=O)N[C@H](C=O)CCc1ccccc1 [2-13]
IC50 (Calpain): 1230 nM

CSCC[C@@H](C=O)NC(=O)[C@H](CC(C)C)OC(=O)Nc1cccc2ccccc12 [2-14]
IC50 (Calpain): 1900 nM

CC(C)C[C@H](OC(=O)Nc1ccccc1)C(=O)N[C@H](C=O)CCSCc1ccc(Cl)cc1 [2-27]
IC50 [1, 2]: 65000 nM

CSCC[C@@H](C=O)NC(=O)C1CCN1C(=O)OCc1ccccc1 (stereo partly drawn) [Compound No. 1-1, (2R,2S)-1-benzyloxycarbonyl-azetidine-2-carboxylic acid-(1 S)-(1-formyl-3-methylthio)-propylamide] (Cbz-[ξAze]-Met-aldehyde)
IC50 (Calpain): 6600 nM

O=C[C@H](Cc1ccccc1)NC(=O)C1CCN(C(=O)/C=C/c2ccccc2)CC1 [Compound No. 1-27, 1-cinnamoylpiperidine-4-carboxylic acid-(1S)-(1-formyl-2-phenyl)ethylamide]
IC50 (Calpain): 750 nM
IC50 [1, 2]: 2900 nM

O=C[C@H](Cc1ccccc1)NC(=O)C1CCN(C(=O)/C=C/c2ccccc2Cl)CC1 [Compound No. 1-42, 1-(2-chlorocinnamoyl)piperidine-4-carboxylic acid-(1S)-(1-formyl-2-phenyl)ethylamide]
IC50 (Calpain): 350 nM
IC50 [1, 2]: 23000 nM

O=C[C@H](Cc1ccccc1)NC(=O)C1CCN(C(=O)/C=C/c2cccc(Cl)c2)CC1 [Compound No. 1-43, 1-(3-chlorocinnamoyl)piperidine-4-carboxylic acid-(1S)-(1-formyl-2-phenyl)ethylamide]
IC50 (Calpain): 560 nM

O=C[C@H](Cc1ccccc1)NC(=O)C1CCN(C(=O)/C=C/c2ccc(Cl)cc2)CC1 [Compound No. 1-44, 1-(4-chlorocinnamoyl)piperidine-4-carboxylic acid-(1S)-(1-formyl-2-phenyl)ethylamide]
IC50 (Calpain): 990 nM
IC50 [1, 2]: 47000 nM

O=C[C@H](Cc1ccccc1F)NC(=O)C1CCN(C(=O)c2ccc3ccccc3c2)CC1 [Compound No. 1-55, 1-(2-naphthoyl)piperidine-4-carboxylic acid-(1S)-[1-formyl-2-(2-fluorophenyl)]ethylamide]
IC50 (Calpain): 630 nM

O=C[C@H](Cc1c[nH]c2ccccc12)NC(=O)C1CCN(C(=O)/C=C/c2ccccc2Cl)CC1 [Compound No. 1-58, 1-(2-chlorocinnamoyl)piperidine-4-carboxylic acid-(1S)-[1-formyl-2-(3-indolyl)]ethylamide]
IC50 (Calpain): 680 nM
IC50 [1, 2]: 22000 nM

O=C[C@H](Cc1ccc(OCc2ccccc2)cc1)NC(=O)C1CCN(C(=O)/C=C/c2ccccc2)CC1 [Compound No. 1-61, 1-cinnamoylpiperidine-4-carboxylic acid-(1S)-[1-formyl-2-(4-benzyloxyphenyl)]ethyl]
IC50 (Calpain): 880 nM
IC50 [1, 2]: 9600 nM

CSCC[C@@H](C=O)NC(=O)[C@H](CC(C)C)OC(=O)Nc1ccccc1 [Compound No. 2-3]
IC50 (Calpain): 1600 nM

CC(C)C[C@H](OC(=O)Nc1ccccc1)C(=O)N[C@H](C=O)CCSCc1ccccc1F [Compound No. 2-17]
IC50 (Calpain): 3600 nM

CC(C)C[C@H](OC(=O)Nc1cccc2ccccc12)C(=O)N[C@H](C=O)CCSCc1ccccc1F [Compound No. 2-18]
IC50 (Calpain): 580 nM

CC(C)C[C@H](OC(=O)Nc1ccccc1)C(=O)N[C@H](C=O)Cc1ccccc1 [Compound No. 2-19]
IC50 (Calpain): 590 nM
IC50 [1, 2]: 4200 nM

CC(C)C[C@H](OC(=O)Nc1cccc2ccccc12)C(=O)N[C@H](C=O)Cc1ccccc1 [Compound No. 2-20]
IC50 (Calpain): 4400 nM

CSCC[C@@H](C=O)NC(=O)[C@@H](OC(=O)Nc1ccccc1)C(C)C [Compound No. 2-21]
IC50 (Calpain): 2000 nM

CSCC[C@@H](C=O)NC(=O)[C@@H](OC(=O)Nc1cccc2ccccc12)C(C)C [Compound No. 2-22]
IC50 (Calpain): 3300 nM

L-N-benzyloxycarbonylleucine-(2S)-[1-formyl-3-(2-chlorophenyl)thio]propylamide [Compound No. 3-42]
IC50 (Calpain): 440 nM
IC50 [1]: 94000 nM

L-N-benzyloxycarbonylleucine-(2S)-[1-formyl-3-(2-fluorophenyl)thio]propylamide [Compound No. 3-41]
IC50 (Calpain): 270 nM
IC50 [1]: 56000 nM

L-N-benzyloxycarbonylleucine-(2S)-[1-formyl-3-(4-chlorophenyl)thio]propylamide [Compound No. 3-43]
IC50 (Calpain): 520 nM
IC50 [1]: 52000 nM
